According to ChEMBL document CHEMBL1201862, “PubChem BioAssay data set” (2004):
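Where inhibition never reached the appropriate level, the endpoint shown equals the highest concentration tested. Otherwise, values were interpolated linearly from a five-concentration, 48-hour dose response in 96-well plates. Here, GI50 denotes the concentration required for 50% inhibition of growth.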 Activity calls are given as the source filed them. No stated cut-off is given here; in the data, active = GI50 up to about 1.1 µM and inactive = higher.

Assays:
Assay in all cases: DTP human tumour cell line panel, 48 h
[1] = test system: OVCAR-8
[2] = test system: NCI-H226
[3] = test system: HOP-92
[4] = test system: SF-295
[5] = test system: UO-31
[6] = test system: 786-0
[7] = test system: HOP-62
[8] = test system: ACHN
[9] = test system: HCT-15
[10] = test system: SK-MEL-28
[11] = test system: SNB-75
[12] = test system: HL-60
[13] = test system: OVCAR-4
[14] = test system: COLO 205
[15] = test system: NCI-H460
[16] = test system: SF-539
[17] = test system: SK-MEL-5
[18] = test system: A498
[19] = test system: UACC-257

Structure (SMILES)	GI50 [1]	GI50 [2]	GI50 [3]	GI50 [4]	GI50 [5]	GI50 [6]	GI50 [7]	GI50 [8]	GI50 [9]	GI50 [10]	GI50 [11]	GI50 [12]	GI50 [13]	GI50 [14]	GI50 [15]	GI50 [16]	GI50 [17]	GI50 [18]	GI50 [19]
CC(=O)/C(=C/N1C(=O)CC(=O)NC1=S)C(=O)Nc1ccccc1C	> 100 µM (inactive)	> 100 µM (inactive)	> 100 µM (inactive)	84.3 µM (inactive)	> 100 µM (inactive)	21.7 µM (inactive)	23.3 µM (inactive)	58.9 µM (inactive)	42.5 µM	58.6 µM (inactive)	91.6 µM (inactive)	49 µM (inactive)	57.5 µM (inactive)	> 100 µM (inactive)	39.2 µM (inactive)	32.3 µM (inactive)	57.9 µM (inactive)	28.1 µM (inactive)	80.5 µM (inactive)
O=C(O)C1C2CCC(C2)C1c1ccccc1 (centres undefined)	> 100 µM (inactive)	> 100 µM (inactive)	> 100 µM (inactive)	> 100 µM (inactive)	> 100 µM (inactive)	> 100 µM (inactive)	> 100 µM (inactive)	> 100 µM (inactive)	> 100 µM	> 100 µM (inactive)	> 100 µM (inactive)	> 100 µM (inactive)		> 100 µM (inactive)	> 100 µM (inactive)	> 100 µM (inactive)	> 100 µM (inactive)	> 100 µM (inactive)	> 100 µM (inactive)
CCc1cc(-c2nsc(=O)o2)c(S(=O)(=O)CC)s1	88.1 µM (inactive)	> 100 µM (inactive)	98.9 µM (inactive)	> 100 µM (inactive)	> 100 µM (inactive)	> 100 µM (inactive)	> 100 µM (inactive)	> 100 µM (inactive)	52.7 µM	49.3 µM (inactive)	> 100 µM (inactive)	0.951 µM (active)	> 100 µM (inactive)	> 100 µM (inactive)	> 100 µM (inactive)	> 100 µM (inactive)	> 100 µM (inactive)	> 100 µM (inactive)	
CC(C)(C)C1(O)C=C(O)C(=O)N1NC(=O)c1ccccc1Nc1ccccc1 (centres undefined)	37.9 µM (inactive)	48.2 µM (inactive)	38.7 µM (inactive)	25.2 µM (inactive)	> 100 µM (inactive)	56.9 µM (inactive)		47.5 µM (inactive)	22.9 µM	50.2 µM (inactive)	61.4 µM (inactive)	0.847 µM (active)	32.9 µM (inactive)	29 µM (inactive)	34.4 µM (inactive)	41.4 µM (inactive)	35.4 µM (inactive)	32.1 µM (inactive)	24.2 µM (inactive)
CN(CCNC(=O)c1nn(C)c2c1Cc1ccccc1-2)CCNC(=O)c1nn(C)c2c1Cc1ccccc1-2	17.5 µM (inactive)	18.3 µM (inactive)	12.9 µM (inactive)	16 µM (inactive)	10.4 µM (inactive)	14.5 µM (inactive)	15.4 µM (inactive)	14.5 µM (inactive)	16.7 µM	16.1 µM (inactive)	14.4 µM (inactive)	12.9 µM (inactive)	17.6 µM (inactive)	11.9 µM (inactive)	16.4 µM (inactive)	14.3 µM (inactive)	12.1 µM (inactive)	15.2 µM (inactive)	14 µM (inactive)
Cc1ccc(S(=O)(=O)Nn2c(O)c(C#N)c(-c3ccc([N+](=O)[O-])cc3)c(C#N)c2=O)cc1	> 100 µM (inactive)	> 100 µM (inactive)	> 100 µM (inactive)	> 100 µM (inactive)		> 100 µM (inactive)	> 100 µM (inactive)	> 100 µM (inactive)	> 100 µM	> 100 µM (inactive)	> 100 µM (inactive)	> 100 µM (inactive)	> 100 µM (inactive)	> 100 µM (inactive)	> 100 µM (inactive)	> 100 µM (inactive)	> 100 µM (inactive)	> 100 µM (inactive)	> 100 µM (inactive)
N/C(=N\Nc1ccc(C(=O)O)cc1)c1cnccn1	> 100 µM (inactive)	> 100 µM (inactive)	> 100 µM (inactive)	> 100 µM (inactive)	> 100 µM (inactive)	> 100 µM (inactive)	> 100 µM (inactive)	> 100 µM (inactive)	> 100 µM	> 100 µM (inactive)	> 100 µM (inactive)	< 0.01 µM (active)	> 100 µM (inactive)	> 100 µM (inactive)	> 100 µM (inactive)	> 100 µM (inactive)	> 100 µM (inactive)	> 100 µM (inactive)	> 100 µM (inactive)
CC(C)(C)c1cc(C2NCCO2)cc(C(C)(C)C)c1O (centres undefined)	77.3 µM (inactive)	> 100 µM (inactive)	74.6 µM (inactive)	34.6 µM (inactive)		65.8 µM (inactive)	30.1 µM (inactive)	> 100 µM (inactive)	57 µM	> 100 µM (inactive)	10.8 µM (inactive)	> 100 µM (inactive)	> 100 µM (inactive)	> 100 µM (inactive)	> 100 µM (inactive)	> 100 µM (inactive)	> 100 µM (inactive)	> 100 µM (inactive)	> 100 µM (inactive)
CCOC(=O)NN(C(=O)OCC)C(=C(c1ccccc1)N1CCOCC1)N(NC(=O)OCC)C(=O)OCC	> 100 µM (inactive)	> 100 µM (inactive)	> 100 µM (inactive)	> 100 µM (inactive)	58.5 µM (inactive)	> 100 µM (inactive)	> 100 µM (inactive)	> 100 µM (inactive)	> 100 µM	> 100 µM (inactive)	44 µM (inactive)	> 100 µM (inactive)	> 100 µM (inactive)	> 100 µM (inactive)	> 100 µM (inactive)	> 100 µM (inactive)	> 100 µM (inactive)	> 100 µM (inactive)	> 100 µM (inactive)
FC(F)(F)c1ccc2nc3n(c2c1)C(c1c(Cl)cccc1Cl)SC3 (centres undefined)	19.6 µM (inactive)	17.3 µM (inactive)	4.65 µM (inactive)	16.4 µM (inactive)	13.8 µM (inactive)	14.7 µM (inactive)	15.8 µM (inactive)	15.9 µM (inactive)	14.2 µM	14.9 µM (inactive)	13 µM (inactive)	2.47 µM (inactive)	15.8 µM (inactive)		14.5 µM (inactive)	15.7 µM (inactive)		19.8 µM (inactive)	14.1 µM (inactive)
CN(CCNC(=O)c1n[nH]c2c1ccc1ccccc12)CCNC(=O)c1n[nH]c2c1ccc1ccccc12	2.05 µM (inactive)	4.32 µM (inactive)	3.29 µM (inactive)	1.81 µM (inactive)	7.35 µM (inactive)	1.75 µM (inactive)	2.11 µM (inactive)	1.83 µM (inactive)	13.7 µM	1.93 µM (inactive)	1.85 µM (inactive)	2.75 µM (inactive)	1.82 µM (inactive)	1.39 µM (inactive)	2.3 µM (inactive)	1.79 µM (inactive)	1.71 µM (inactive)	7.28 µM (inactive)	24.4 µM (inactive)
CCCCCCCCCCCCCCC(C(=O)[O-])[n+]1ccccc1 (centres undefined)	98.6 µM (inactive)	> 100 µM (inactive)	> 100 µM (inactive)	> 100 µM (inactive)	> 100 µM (inactive)	> 100 µM (inactive)	> 100 µM (inactive)	> 100 µM (inactive)	> 100 µM	> 100 µM (inactive)	> 100 µM (inactive)	98.4 µM (inactive)	> 100 µM (inactive)	> 100 µM (inactive)	> 100 µM (inactive)	> 100 µM (inactive)	> 100 µM (inactive)	> 100 µM (inactive)	> 100 µM (inactive)
CC1OC(O[C@H]2CC[C@]3(C)[C@H]4CC=C5[C@@H]6[C@@H](C)[C@H](C)CC[C@]6(C(=O)O)CC[C@@]5(C(=O)O)[C@]4(C)CC[C@H]3C2(C)C)C(O)C(O)C1O (some centres undefined)	> 75 µM (inactive)		38.3 µM (inactive)	> 75 µM (inactive)	> 75 µM (inactive)	> 75 µM (inactive)	> 75 µM (inactive)	> 75 µM (inactive)	> 75 µM		> 75 µM (inactive)	24.8 µM (inactive)	> 75 µM (inactive)	> 75 µM (inactive)	50.1 µM (inactive)	> 75 µM (inactive)	> 75 µM (inactive)	> 75 µM (inactive)	> 75 µM (inactive)
COc1cc(C2c3[nH]c4ccccc4c3[C@@H](Nc3ccc(C#N)cc3)[C@H]3COC(=O)N23)cc(OC)c1O (some centres undefined)	0.227 µM (active)	0.19 µM (active)	0.413 µM (active)	0.164 µM (active)	0.802 µM (active)	0.0908 µM (active)	0.192 µM (active)	0.155 µM (active)	1.07 µM	0.395 µM (active)	0.227 µM (active)	0.0399 µM (active)	1.84 µM (inactive)	0.644 µM (active)	0.0288 µM (active)	0.0618 µM (active)	0.132 µM (active)	0.0516 µM (active)	0.548 µM (active)
COc1ccc(N)c(C(=O)CCNC(C)=O)c1 [KINURENAMINE]	> 100 µM (inactive)	> 100 µM (inactive)	> 100 µM (inactive)	> 100 µM (inactive)	> 100 µM (inactive)	> 100 µM (inactive)		> 100 µM (inactive)	> 100 µM		> 100 µM (inactive)	> 100 µM (inactive)	> 100 µM (inactive)	> 100 µM (inactive)	> 100 µM (inactive)	> 100 µM (inactive)	> 100 µM (inactive)	> 100 µM (inactive)	> 100 µM (inactive)
